From ChEMBL document CHEMBL1221361, “Substituted biaryl oxazoles, imidazoles, and thiazoles as sodium channel blockers” (Bioorg Med Chem Lett, 2010) come the findings set out here.

Several values for one entry are separate records, joined by “and”; a condition that tells them apart may be missing. Identical values can stand only once.

In data set [1] the target is T1, Sodium channel protein type 9 subunit alpha (Homo sapiens, UniProt Q15858). Put plainly: Blockade of human Nav1.7 by voltage ion probe reader based FRET assay.
Target sequence in this assay (Q15858 whole entry): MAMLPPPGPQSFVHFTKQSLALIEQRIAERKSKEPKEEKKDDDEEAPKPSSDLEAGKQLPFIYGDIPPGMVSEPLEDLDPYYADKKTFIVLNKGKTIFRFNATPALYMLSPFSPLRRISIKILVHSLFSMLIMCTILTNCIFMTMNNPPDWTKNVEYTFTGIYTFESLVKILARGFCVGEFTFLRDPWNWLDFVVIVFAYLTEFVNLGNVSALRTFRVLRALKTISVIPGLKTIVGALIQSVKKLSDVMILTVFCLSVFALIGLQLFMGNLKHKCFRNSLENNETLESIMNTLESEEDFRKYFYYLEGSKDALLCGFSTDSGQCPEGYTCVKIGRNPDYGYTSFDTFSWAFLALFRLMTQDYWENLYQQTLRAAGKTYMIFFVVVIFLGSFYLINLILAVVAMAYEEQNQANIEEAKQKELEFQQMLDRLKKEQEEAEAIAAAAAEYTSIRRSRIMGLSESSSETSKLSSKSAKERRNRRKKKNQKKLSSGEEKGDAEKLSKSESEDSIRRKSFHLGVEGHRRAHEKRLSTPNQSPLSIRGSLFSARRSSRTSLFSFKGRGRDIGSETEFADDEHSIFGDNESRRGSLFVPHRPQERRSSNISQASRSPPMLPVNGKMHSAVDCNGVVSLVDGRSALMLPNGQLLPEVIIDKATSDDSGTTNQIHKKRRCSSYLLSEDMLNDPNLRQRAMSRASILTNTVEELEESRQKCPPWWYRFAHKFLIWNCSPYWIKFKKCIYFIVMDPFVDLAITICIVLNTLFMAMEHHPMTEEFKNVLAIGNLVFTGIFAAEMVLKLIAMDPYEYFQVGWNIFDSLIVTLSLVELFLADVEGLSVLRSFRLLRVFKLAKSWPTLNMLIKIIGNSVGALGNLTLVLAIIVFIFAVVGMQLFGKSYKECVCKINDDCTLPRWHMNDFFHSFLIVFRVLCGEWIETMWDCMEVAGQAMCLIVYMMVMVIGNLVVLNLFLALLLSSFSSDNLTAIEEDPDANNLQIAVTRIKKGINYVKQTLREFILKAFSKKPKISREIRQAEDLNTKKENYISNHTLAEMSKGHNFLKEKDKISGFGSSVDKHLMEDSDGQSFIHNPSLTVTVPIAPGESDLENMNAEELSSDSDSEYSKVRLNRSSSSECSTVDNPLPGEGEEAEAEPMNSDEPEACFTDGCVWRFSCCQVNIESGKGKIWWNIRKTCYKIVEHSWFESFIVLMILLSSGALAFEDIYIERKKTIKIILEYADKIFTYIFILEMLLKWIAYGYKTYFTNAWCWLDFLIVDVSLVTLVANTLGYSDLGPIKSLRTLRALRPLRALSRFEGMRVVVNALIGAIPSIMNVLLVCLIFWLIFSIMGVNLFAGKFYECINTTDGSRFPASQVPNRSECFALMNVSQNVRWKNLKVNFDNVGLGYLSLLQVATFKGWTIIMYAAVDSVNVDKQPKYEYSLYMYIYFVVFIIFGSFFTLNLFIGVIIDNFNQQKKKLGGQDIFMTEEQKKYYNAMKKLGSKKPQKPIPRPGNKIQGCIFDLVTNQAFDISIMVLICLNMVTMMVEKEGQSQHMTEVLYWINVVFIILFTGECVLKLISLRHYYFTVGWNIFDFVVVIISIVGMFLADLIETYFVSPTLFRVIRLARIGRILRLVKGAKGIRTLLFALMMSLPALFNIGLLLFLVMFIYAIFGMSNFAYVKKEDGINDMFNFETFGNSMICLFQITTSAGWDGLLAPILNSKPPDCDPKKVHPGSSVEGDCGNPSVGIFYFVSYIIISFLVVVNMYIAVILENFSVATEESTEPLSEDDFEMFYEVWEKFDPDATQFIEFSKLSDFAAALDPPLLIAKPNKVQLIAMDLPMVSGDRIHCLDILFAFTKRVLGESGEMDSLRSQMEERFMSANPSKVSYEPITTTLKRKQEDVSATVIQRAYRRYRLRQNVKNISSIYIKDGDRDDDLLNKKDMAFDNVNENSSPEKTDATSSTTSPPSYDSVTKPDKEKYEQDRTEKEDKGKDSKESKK
In data set [2] the target is T1, Sodium channel protein type 9 subunit alpha. Put plainly: Blockade of human Nav1.7 at 1 uM by voltage ion probe reader based FRET assay.
Target sequence in this assay (Q15858 whole entry, looked up): as the sequence (Q15858 whole entry) above
A further data set deals with Cytochrome P450 3A4 (Homo sapiens, UniProt P08684). Put plainly: Inhibition of CYP3A4. It is filed as ADME.
Cytochrome P450 3A4, sequence (P08684 whole entry): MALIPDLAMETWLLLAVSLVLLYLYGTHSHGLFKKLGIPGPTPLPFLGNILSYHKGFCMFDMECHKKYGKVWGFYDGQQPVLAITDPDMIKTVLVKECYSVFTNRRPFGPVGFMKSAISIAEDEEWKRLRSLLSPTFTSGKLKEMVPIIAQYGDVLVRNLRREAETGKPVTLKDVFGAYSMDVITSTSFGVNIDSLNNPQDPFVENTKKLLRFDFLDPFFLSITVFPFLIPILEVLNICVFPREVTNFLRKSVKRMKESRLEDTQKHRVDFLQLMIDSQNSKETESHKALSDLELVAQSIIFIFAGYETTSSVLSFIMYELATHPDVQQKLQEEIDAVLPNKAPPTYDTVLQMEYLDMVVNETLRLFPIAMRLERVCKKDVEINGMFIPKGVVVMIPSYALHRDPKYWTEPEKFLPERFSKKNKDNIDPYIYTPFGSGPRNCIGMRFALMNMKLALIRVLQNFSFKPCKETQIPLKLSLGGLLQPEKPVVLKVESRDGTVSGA
Data set [3] concerns the target T1, Sodium channel protein type 9 subunit alpha. Put plainly: Blockade of human Nav1.7 by electrophysiology assay.
Target sequence in this assay (Q15858 whole entry): as the sequence (Q15858 whole entry) above
In a further data set the target is Cytochrome P450 2C9 (Homo sapiens, UniProt P11712). Put plainly: Inhibition of CYP2C9. It is filed as ADME.
Cytochrome P450 2C9, sequence (P11712 whole entry): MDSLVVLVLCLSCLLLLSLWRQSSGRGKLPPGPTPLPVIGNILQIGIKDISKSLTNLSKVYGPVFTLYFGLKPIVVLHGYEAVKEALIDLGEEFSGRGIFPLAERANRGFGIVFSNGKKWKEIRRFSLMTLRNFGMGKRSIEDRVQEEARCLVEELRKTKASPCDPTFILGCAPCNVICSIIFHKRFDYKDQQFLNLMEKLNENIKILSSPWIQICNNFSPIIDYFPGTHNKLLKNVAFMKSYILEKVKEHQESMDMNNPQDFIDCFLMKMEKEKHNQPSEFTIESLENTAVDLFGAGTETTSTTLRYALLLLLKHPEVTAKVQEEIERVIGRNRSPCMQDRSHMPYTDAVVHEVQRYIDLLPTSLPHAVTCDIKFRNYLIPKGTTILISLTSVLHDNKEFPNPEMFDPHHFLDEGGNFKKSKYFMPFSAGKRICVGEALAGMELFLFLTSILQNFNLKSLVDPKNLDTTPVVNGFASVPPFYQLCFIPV
The nature of data set [4]: Oral bioavailability in rat at 1 to 3 mg/kg. Format: ADME, organism-based. To be noted: in vivo.
For the next data set, the target named is Cytochrome P450 2D6 (Homo sapiens, UniProt P10635). Put plainly: Inhibition of CYP2D6. Format: ADME.
Cytochrome P450 2D6, sequence (P10635 whole entry): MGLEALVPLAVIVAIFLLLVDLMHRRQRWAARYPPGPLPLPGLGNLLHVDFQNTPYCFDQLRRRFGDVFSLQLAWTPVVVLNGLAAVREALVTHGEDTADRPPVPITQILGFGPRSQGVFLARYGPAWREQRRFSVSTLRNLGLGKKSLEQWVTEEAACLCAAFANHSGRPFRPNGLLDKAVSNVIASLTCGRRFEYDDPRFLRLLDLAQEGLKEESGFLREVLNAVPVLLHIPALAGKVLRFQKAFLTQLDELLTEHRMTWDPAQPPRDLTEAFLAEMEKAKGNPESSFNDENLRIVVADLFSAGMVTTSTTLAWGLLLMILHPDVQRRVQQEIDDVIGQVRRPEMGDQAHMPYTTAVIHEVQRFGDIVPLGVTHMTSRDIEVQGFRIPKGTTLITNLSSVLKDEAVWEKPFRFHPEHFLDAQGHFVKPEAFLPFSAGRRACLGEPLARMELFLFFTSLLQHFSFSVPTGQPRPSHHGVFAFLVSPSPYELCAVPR
Another data set concerns the target hERG (KCNH2) (Homo sapiens, UniProt Q12809). Put plainly: Displacement of radiolabeled MK-0499 from human ERG at 1 uM. To be noted: probe radiolabeled MK-0499.
A short description of data set [5]: Half life in rat plasma at 1 to 3 mg/kg. Also on record: dose 1-3 mg/kg. It is filed as ADME, organism-based.
The nature of data set [6]: Clearance in rat plasma at 1 to 3 mg/kg. It is filed as ADME, organism-based. Also on record: dose 1-3 mg/kg.
Data set [7] in a line: Half life in rat plasma at 1 to 2 mg/kg. It is filed as ADME, organism-based. Also on record: dose 1-2 mg/kg.
A short description of data set [8]: Oral bioavailability in rat at 1 to 2 mg/kg. Format: ADME, organism-based. To be noted: in vivo.
Data set [9] is described as follows: Clearance in rat plasma at 1 to 2 mg/kg. It is filed as ADME, organism-based. Also on record: dose 1-2 mg/kg.
The target in data set [10] is T1, Sodium channel protein type 9 subunit alpha. Put plainly: Binding affinity to human Nav1.7.
Target sequence in this assay (Q15858 whole entry): as the sequence (Q15858 whole entry) above
Data set [11] can be described thus: Metabolic stability in dog hepatocytes assessed as compound remaining after 2 hrs. To be noted: read-out: INH. It is filed as ADME, cell-based, Canis lupus familiaris, Hepatocyte.
Data set [12] can be described thus: Metabolic stability in dog liver S9 microsomes assessed as compound remaining after 1 hr. It is filed as ADME, Canis lupus familiaris, Microsome. To be noted: read-out: INH.
Data set [13] can be described thus: Metabolic stability in human liver S9 microsomes assessed as compound remaining after 1 hr. It is filed as ADME, Microsome. To be noted: read-out: INH.
The subject of the next data set is Rattus norvegicus. Put plainly: Analgesic activity rat spinal nerve ligation Chung model assessed as reversal of mechanical allodynia at 10 mg/kg, po administered 14 days after surgery measured 2 hrs after postdose. Format: functional.
Data set [14] is described as follows: Metabolic stability in rat liver S9 microsomes assessed as compound remaining after 1 hr. Format: ADME, Microsome. To be noted: read-out: INH.

hERG (KCNH2), sequence (Q12809 whole entry): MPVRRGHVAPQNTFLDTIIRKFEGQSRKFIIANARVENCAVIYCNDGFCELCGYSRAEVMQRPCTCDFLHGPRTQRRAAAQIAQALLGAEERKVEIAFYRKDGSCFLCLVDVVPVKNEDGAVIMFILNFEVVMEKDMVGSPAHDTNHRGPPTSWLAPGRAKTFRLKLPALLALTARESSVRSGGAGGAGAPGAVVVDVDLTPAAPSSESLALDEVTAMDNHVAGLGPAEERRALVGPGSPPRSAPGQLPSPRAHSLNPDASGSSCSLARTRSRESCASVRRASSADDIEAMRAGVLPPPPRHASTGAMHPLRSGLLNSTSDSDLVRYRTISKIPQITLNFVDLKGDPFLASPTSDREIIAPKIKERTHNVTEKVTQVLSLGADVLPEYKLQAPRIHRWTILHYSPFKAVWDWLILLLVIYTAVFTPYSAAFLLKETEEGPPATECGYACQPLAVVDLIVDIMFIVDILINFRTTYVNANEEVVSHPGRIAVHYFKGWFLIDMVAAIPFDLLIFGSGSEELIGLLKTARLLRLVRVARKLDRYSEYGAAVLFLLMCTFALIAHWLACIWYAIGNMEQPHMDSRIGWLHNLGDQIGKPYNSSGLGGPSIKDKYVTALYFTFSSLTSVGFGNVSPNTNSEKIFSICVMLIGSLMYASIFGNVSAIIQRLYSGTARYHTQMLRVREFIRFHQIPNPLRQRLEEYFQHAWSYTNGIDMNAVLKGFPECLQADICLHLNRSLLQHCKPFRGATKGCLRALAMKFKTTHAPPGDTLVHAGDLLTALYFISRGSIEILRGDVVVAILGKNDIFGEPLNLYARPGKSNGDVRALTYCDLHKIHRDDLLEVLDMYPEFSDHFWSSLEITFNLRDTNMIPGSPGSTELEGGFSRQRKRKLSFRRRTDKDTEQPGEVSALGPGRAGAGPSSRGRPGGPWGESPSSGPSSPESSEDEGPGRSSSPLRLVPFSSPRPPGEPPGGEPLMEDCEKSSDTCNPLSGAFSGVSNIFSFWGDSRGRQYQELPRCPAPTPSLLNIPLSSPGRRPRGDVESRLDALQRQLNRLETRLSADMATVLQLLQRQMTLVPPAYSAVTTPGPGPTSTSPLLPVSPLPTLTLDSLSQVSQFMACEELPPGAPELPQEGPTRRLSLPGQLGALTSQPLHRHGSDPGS

For orientation: IC50 means the concentration that inhibits the measured activity by half. The low end stands for greater potency, the high end for weaker potency. In data set [1], `FC(F)(F)Oc1ccccc1-c1cccc(-c2cscn2)c1` registered an IC50 of 2160 nM.

In turn, `NC(=O)c1nc(-c2cccc(-c3ccccc3C(F)(F)F)c2)c(Cl)[nH]1` had an IC50 in data set [1] of 2770 nM. This IC50 and that of the molecule before are within 1.5-fold of each other.

In data set [1], `FC(F)(F)Oc1ccccc1-c1cccc(-c2cocn2)c1` registered an IC50 of 1940 nM.

As a reminder, the inhibition is the change of the read-out against control, counted positive when it falls. Low values mean little suppression, high ones strong suppression. By bioavailability is commonly meant the share of a dose that reaches the circulation, judged against a reference dose that is usually intravenous. A low value points to little systemic uptake. As usually defined, the half-life is how long it takes for the measured level to halve. Higher therefore signals slow loss. As usually defined, the clearance is the rate of elimination divided by the concentration. A lower clearance goes with a low capacity for elimination. `NC(=O)c1nc(-c2cccc(-c3ccccc3C(F)(F)F)c2)c[nH]1` displayed an inhibition in [2] of 55%. The IC50 on Cytochrome P450 3A4 is above 40000 nM; in data set [3] it was 270 nM; against Cytochrome P450 2C9, above 40000 nM; on Cytochrome P450 2D6, above 40000 nM. The molecule further had a bioavailability in data set [4] of 46%. This molecule also returned an inhibition at 1 µM at hERG (KCNH2) of 25%. In addition, the half-life in data set [5] was 30 min. Besides, the clearance in [6] came to 23 mL/min/kg.

`Cc1sc(C(N)=O)nc1-c1cccc(-c2ccccc2OC(F)(F)F)c1` showed an IC50 in data set [1] of 430 nM.

In [2], `FC(F)(F)Oc1ccccc1-c1cccc(-c2csc(-c3ncccn3)n2)c1` came in with an inhibition of 6.3%.

`Cn1cc(-c2ccc(F)c(-c3ccccc3OC(F)(F)F)c2)nc1C(N)=O` showed a 50% inhibitory concentration (IC50) in data set [1] of 490 nM.

Take `FC(F)(F)c1ccccc1-c1cccc(-c2c[nH]cn2)c1`: the half-life in data set [7] stood at 37.8 min. Further, the IC50 was below 50 nM against Cytochrome P450 3A4; 150 nM in [3]; below 50 nM on Cytochrome P450 2C9; below 50 nM against Cytochrome P450 2D6; 2100 nM in data set [1]. For the same molecule, 1 µM produced 75% inhibition at hERG (KCNH2). In [8], the bioavailability was found to be 71%. This molecule also gave a clearance in [9] of 32 mL/min/kg.

Regarding `NC(=O)c1nc(-c2ccc(-c3ccccc3OC(F)(F)F)cc2)cs1`, in data set [2], the inhibition came out at 6.1%.

Usually Ki stands for the equilibrium dissociation constant of an inhibitor or competing ligand from its target. Consider `O=C1NC(=O)/C(=C/c2cccc(-c3ccccc3OC(F)(F)F)c2)S1`, for which the Ki in data set [10] stood at 20 nM.

As for `Cn1cc(-c2cc(-c3ccccc3OC(F)(F)F)ccc2F)nc1C(N)=O`, in data set [2], the inhibition is 15%.

As for `CN(C)C(=O)c1nc(-c2cccc(-c3ccccc3OC(F)(F)F)c2)cs1`, 1370 nM corresponded to half-maximal inhibition in [1] (IC50).

On to `Nc1nc(-c2cccc(-c3ccccc3OC(F)(F)F)c2)co1`, for which the inhibition in data set [2] is 37%.

As for `FC(F)(F)Oc1ccccc1-c1cccc(-c2csc(-c3ncco3)n2)c1`, the inhibition in data set [2] was 27%.

Molecule `FC(F)(F)Oc1ccccc1-c1cccc(-c2csc(-c3ncc[nH]3)n2)c1` returned an IC50 in data set [1] of 950 nM.

In the case of `CC(=O)Nc1nc(-c2cccc(-c3ccccc3OC(F)(F)F)c2)cs1`, the inhibition in data set [2] turned out to be 5%.

`CCOC(=O)c1nc(-c2cccc(-c3ccccc3OC(F)(F)F)c2)c(C)s1` showed an inhibition in data set [2] of 8%.

In data set [2], `Nc1nc(-c2cccc(-c3ccccc3OC(F)(F)F)c2)cs1` gave an inhibition of 84%.

In turn, `Cc1nc(-c2cccc(-c3ccccc3OC(F)(F)F)c2)co1` yielded a 50% inhibitory concentration (IC50) in [1] of 2140 nM.

For the molecule `FC(F)(F)Oc1ccccc1-c1cccc(-c2csc(-c3cnccn3)n2)c1`, inhibition in [1] was half-maximal at 1260 nM (IC50).

`FC(F)(F)Oc1ccccc1-c1cccc(-c2csc(-c3ccccn3)n2)c1` had an inhibition in data set [2] of 21%.

Molecule `CS(=O)(=O)Nc1nc(-c2cccc(-c3ccccc3OC(F)(F)F)c2)cs1` came in with an inhibition in data set [2] of 65%.

Consider `Cc1nc(-c2cccc(-c3ccccc3OC(F)(F)F)c2)cs1`, for which, in data set [1], inhibition was half-maximal at 2990 nM (IC50).

In the case of `FC(F)(F)Oc1ccccc1-c1cccc(-c2c[nH]cn2)c1`, the inhibition in [2] was 14%.

In the case of `Cn1cc(-c2cccc(-c3ccccc3C(F)(F)F)c2)nc1C(N)=O`, the IC50 in [1] came to 1250 nM.

`NC(=O)N/N=C/c1ccc(Oc2ccc(F)cc2)cc1` showed a Ki in data set [10] of 360 nM.

`NC(=O)c1csc(-c2cccc(-c3ccccc3OC(F)(F)F)c2)n1`: the IC50 is above 50000 nM on Cytochrome P450 3A4; 50 nM in data set [3]; 8790 nM on Cytochrome P450 2C9; above 50000 nM on Cytochrome P450 2D6; 260 nM in data set [1]. This molecule also displayed a bioavailability in data set [4] of 22%. Also, at hERG (KCNH2), testing at 1 µM gave an inhibition of 55%. Moreover, in [5], the half-life is 44.4 min. The clearance in data set [6] was 112 mL/min/kg.

`NC(=O)c1nc(-c2cccc(-c3ccccc3OC(F)(F)F)c2)co1` displayed an IC50 in data set [1] of 2360 nM.

`OCc1nc(-c2cccc(-c3ccccc3OC(F)(F)F)c2)cs1`: the IC50 in data set [1] turned out to be 1800 nM.

Molecule `FC(F)(F)c1ccccc1-c1cccc(-c2cocn2)c1` showed an IC50 in [1] of 5310 nM.

In [2], `CN(C)C(=O)Nc1nc(-c2cccc(-c3ccccc3OC(F)(F)F)c2)cs1` had an inhibition of 6.6%.

In data set [1], `NC(=O)Cc1nc(-c2cccc(-c3ccccc3OC(F)(F)F)c2)cs1` displayed an IC50 of 620 nM.

A word on the inhibition in vivo: it is how much of the control response was suppressed. With `NC(=O)c1nc(-c2cccc(-c3ccccc3OC(F)(F)F)c2)cs1`, the remaining at 2 h in [11] was below 5%. In addition, the half-life in data set [7] was found to be 79.8 min. Moreover, the IC50 was 18000 nM on Cytochrome P450 3A4; 15 nM in data set [3]; 16000 nM against Cytochrome P450 2C9; 48000 nM at Cytochrome P450 2D6; 230 nM (2×) and 228 nM in data set [1]. For the same molecule, the remaining at 1 h is 10% in data set [12], 47% in data set [13] and 68% in data set [14]. Moreover, testing at 1 µM at hERG (KCNH2) gave an inhibition of 0.5%. Further, the bioavailability in data set [8] is 20%. The clearance in data set [9] is 52 mL/min/kg. Also, in the data set on Rattus norvegicus, the inhibition in vivo at 10 mg/kg came out at 61%.

`N#CCc1nc(-c2cccc(-c3ccccc3OC(F)(F)F)c2)cs1` came in with an inhibition in data set [2] of 8%.
